Reference: ChEMBL document CHEMBL5104209 (RSC Med Chem, 2022)
The source made the active and inactive calls. The rule behind the calls is not given here.

Experiments:
[1] = Binding affinity to human His-tagged PAK4 (300 to 591 residues) L301A mutant expressed in Escherichia coli BL21 (DE3)pLysS by surface plasmon resonance assay
Homo sapiens = organism: Homo sapiens; experiment: Binding affinity to human His-tagged PAK4 (300 to 591 residues) L301A mutant expressed in Escherichia coli BL21 (DE3)pLysS in presence of staurosporine by ligand observed NMR competitive assay

| Compound | Kd [1] [µM] | Activity (Homo sapiens) |
| --- | --- | --- |
| Nc1cccc2ncccc12 | 510 |  |
| CNC(=O)c1cnn2ccc(C#N)cc12 |  | Active |
| c1c(Nc2nc(N3CCCCC3)nc3[nH]ncc23)n[nH]c1C1CC1 | 0.05 |  |
| NS(=O)(=O)c1cccc2cnccc12 | 300 |  |
